Experimental data as given in patent US20050084872A1 (priority 2003, published 2005).

Experiments:
[1] = test system: PPARγ; experiment: PPARγ efficacy score from expression of the 22-probe efficacy-related gene population in cultured 3T3L1 adipocytes; format: cell-based, mouse; conditions: mean over 22 probes of logRatio divided by template logRatio, template = average of Rosiglitazone and {2-[2-(4-phenoxy-2-propylphenoxy)ethyl]-1H-indol-5-yl}acetic acid
Experimental: Twenty four hours after the cells were contacted with one or other of the foregoing agents the cells were harvested and RNA extracted therefrom.
Thus, an efficacy value a PPARγ agonist, or partial agonist, was calculated in the following manner. […] This mean value was the PPARγ efficacy value for the PPARγ agonist, or partial agonist.
A chi-square fitting was also used to calculate the efficacy value for each tested PPARγ agonist, or partial agonist. The chi-square fitting formula used was: [formula]
Where Ri, σRi stand for the logRatio and error for logRatio of the full template. Xi and σXi stand for the logRatio and error for logRatio of the testing compound.
A PPARα agonist was included as a control.

[2] = test system: PPARγ; experiment: PPARγ classifier value from expression of the 303-probe classifier gene population in 3T3L1 adipocyte cell line; format: cell-based, mouse; conditions: Phase 3, high dosage (30×EC50), mean over 303 probes of logRatio divided by template logRatio, template = average of two full agonists (Group 1)
Experimental: The overall experiment was conducted in three phases (i.e., in three separate experiments conducted at three different times) as shown in Table 11 below. Three replicates were done for each of the tested compounds in each phase of the experiment.
The other PPARγ agonist, and partial agonist, compounds were used in testing the classifier population of genes. […] The PPARα agonist was included as a control.
The three replicate gene expression profiles within each phase of the experiment were first combined based on the error-weighted average. Expression profiles of two PPARγ full agonists, and four PPARγ partial agonists (in Phase 1) were chosen for classifier training, and were divided into the following two groups:
Group 1: two PPARγ full agonists (5-(4-{2-[methyl(pyridin-2-yl)amino]ethoxy} benzyl)-1,3-thiazolidine-2,4-dione and 5-{4-[2-hydroxy-2-(5-methyl-2-phenyl-1,3-oxazol-4-yl)ethoxy]benzyl}-1,3-thiazolidine-2,4-dione)
The Matlab function ANOVA1 (one-way analysis of variance) was used to calculate the pvalue (hereafter referred to as the ANOVA-pvalue) for the null hypothesis that the means of Group 1 and Group 2 are equal.

Compound: CN(CCOc1ccc(CC2SC(=O)NC2=O)cc1)c1ccccn1 (stereo not shown) [Rosiglitazone, 5-(4-{2-[methyl(pyridin-2-yl)amino]ethoxy}benzyl)-1,3-thiazolidine-2,4-dione]
- Efficacy Score [1]: 0.967
- Classifier Value [2]: 0.850

Compound: CCCc1cc(Oc2ccccc2)ccc1OCCc1cc2cc(CC(=O)O)ccc2[nH]1 [Agonist 1, {2-[2-(4-phenoxy-2-propylphenoxy)ethyl]-1H-indol-5-yl}acetic acid]
- Efficacy Score [1]: 1.033
- Classifier Value [2]: 0.881
